According to US20240350506A1, “PREPARATION OF HISTONE DEACETYLASE INHIBITOR, AND PREPARATION METHOD THEREFOR AND USE THEREOF” (CHENGDU ZENITAR BIOMEDICAL TECHNOLOGY CO., LTD., priority 2021, published 2024):
Counter-ions that a name gives are not always drawn. Like-named read-outs stand apart in the source and are kept apart here.

Key:
[1] = test system: Human Burkitt's lymphoma Daudi cell lines; test: Pharmacodynamic experiment on subcutaneously transplanted tumor, Daudi, in NOD/SCID mice; type: in vivo; details: 10 mg/kg i.v. three times a week (LBH589 dose), female NOD/SCID mice, day 32
Experimental: Establishment of subcutaneously transplanted tumor model: Human Burkitt's lymphoma Daudi cell lines were in vitro cultured in RPMI-1640 medium containing 10% fetal bovine serum, 100 U/mL penicillin, and 100 μg/mL streptomycin. The cells in logarithmic growth phase were selected, and washed three times with PBS buffer under sterile conditions. The single cell suspension was diluted with PBS buffer to 2×10^8 cells/mL for future use. […], 0.1 mL of single cell suspension was taken, and then subcutaneously inoculated into the back of female NOD/SCID mice with a weight of >20 g. Grouping and treatment: When the volume of the tumor reached 100-200 mm^3 or above (the measurement and calculation method of tumor volume (TV): TV (mm^3)=a×b2×π/6, wherein a and b represent the longest diameter and the shortest diameter (mm), respectively), tumor-bearing mice with excessive or insufficient tumor volumes would be eliminated, and qualified animals were randomly divided into groups.
Experimental endpoint and analysis indicators: Example 5 of the present invention was administered 14 times, and the experiment was terminated on the 32nd day after the first treatment. The analysis indicators are:
(2) Determination of tumor weight and calculation of tumor inhibition rate (%)
When the experiment was terminated, the animals was euthanized according to the operating procedures of animal experiments, and dissected to collect the tumor mass, which was then weighted. The tumor inhibition rate (%) was calculated according to the following formula: […]
(3) Animal survival and weight changes during the experimental process.

[2] = test system: Human multiple myeloma RPMI-8226 cell lines; test: Pharmacodynamic experiment on subcutaneously transplanted tumor, RPMI-8226, in NOD/SCID mice; type: in vivo; details: 10 mg/kg i.v. three times a week; female NOD/SCID mice, day 32
Experimental: Establishment of subcutaneously transplanted tumor model: […] The cells in logarithmic growth phase were selected, and washed three times with PBS buffer under sterile conditions. The single cell suspension was diluted with PBS buffer to 7×10^7 cells/mL for future use. Prior to seeding, 0.1 mL of single cell suspension was taken, and then subcutaneously inoculated into the back of female NOD/SCID mice with a weight of >20 g. Grouping and treatment: When the volume of the tumor reached 100-200 mm^3 or above (the measurement and calculation method of tumor volume (TV): TV (mm^3)=a×b2×π/6, wherein a and b represent the longest diameter and the shortest diameter (mm), respectively), tumor-bearing mice with excessive or insufficient tumor volumes would be eliminated, and qualified animals were randomly divided into groups. […] “B” means Bortezomib; “D” means Dexamethasone; “L” means Lenalidomide. Experimental endpoint and analysis indicators: Example 5 of the present invention was administered 14 times, and the experiment was terminated on the 32nd day after the first treatment. The analysis indicators are: (2) Determination of tumor weight and calculation of tumor inhibition rate (%) When the experiment was terminated, according to the operating procedures of animal experiments, the animals was euthanized and dissected to collect the tumor mass, which was then weighted. The tumor inhibition rate (%) was calculated according to the following formula: [formula] (3) Animal survival and weight changes during the experimental process.

[3] = Phase solubility of PM in in-situ basic salt-forming agents (arginine, meglumine); type: physicochemical; details: API saturated; for solubility thermodynamic: aqueous with cosolvent or surfactant or cyclodextrin, thermodynamic from solid, read-out: Drug concentration
Experimental: (§1) According to the pH guidance standard for injection, the optimal pH range for injection was 4-9.
(§2) Then, excessive PM raw materials were added and dissolved under ultrasound until saturation. A clear saturated solution was filtered out over a 0.22 μm membrane and transferred into a centrifuge tube. The concentration (mg/mL) and purity (0%) of dissolved PM raw materials were detected by HPLC, and then, whether there was drug precipitation was observed using a clarity detector after being stored in a refrigerator at 4° C. in dark for one day.

[4] = Phase solubility of PM in cyclodextrins (HP-β-CD, SBE-β-CD); type: physicochemical; details: API saturated; for Storing at 4° C. for one day: cell wraps ('sediment')
Experimental: as §1
as §2, with “excess” for “excessive”, “(%)” for “(0%)”

## Cc1[nH]c2ccccc2c1CCNCc1ccc(/C=C/C(=O)NO)cc1 [LBH589]
[1]
  Animal numbers End/Begining: 7/7
  Tumor inhibition rate (%): 76.92%
[1]; in g (unit assumed)
  Weight of tumor mass X ± SD: 0.83 ± 0.38
[2]
  Animal number End/Beginning: 6/6
  Tumor inhibition rate (%): 59.79%
  Tumor weight (g) X ± SD: 0.90 ± 0.37 g

## CN(Cc1nc2c(N3CCOCC3)nc(-c3ccc(N)cc3)nc2n1C)c1ncc(C(=O)NO)cn1 [API, purinostat mesylate]
[3]; 1‰ (M/V) arginine solution in UP water, Arginine 1‰
  solubility thermodynamic: 50 µg/mL
[3]; 1‰ (M/V) meglumine solution in UP water, Meglumine 1‰
  solubility thermodynamic: 130 µg/mL
[3]; 3‰ (M/V) arginine solution in UP water, Arginine 3‰
  solubility thermodynamic: 110 µg/mL
[3]; 3‰ (M/V) meglumine solution in UP water, Meglumine 3‰
  solubility thermodynamic: 240 µg/mL
[3]; 5‰ (M/V) arginine solution in UP water, Arginine 5‰
  solubility thermodynamic: 170 µg/mL
[3]; 5‰ (M/V) meglumine solution in UP water, Meglumine 5‰
  solubility thermodynamic: 350 µg/mL
[3]; 8‰ (M/V) arginine solution in UP water, Arginine 8‰
  solubility thermodynamic: 280 µg/mL
[3]; 8‰ (M/V) meglumine solution in UP water, Meglumine 8‰
  solubility thermodynamic: 460 µg/mL
[3]; 10‰ (M/V) arginine solution in UP water, Arginine 10‰
  solubility thermodynamic: 370 µg/mL
[3]; 10‰ (M/V) meglumine solution in UP water, Meglumine 10‰
  solubility thermodynamic: 700 µg/mL
[3]; Arginine 1‰
  Drug purity (%): 100%
  pH value: 8.87
[3]; Arginine 3‰
  Drug purity (%): 100%
  pH value: 9.30
[3]; Arginine 5‰
  Drug purity (%): 100%
  pH value: 9.61
[3]; Arginine 8‰
  Drug purity (%): 98.97%
  pH value: 9.76
[3]; Arginine 10‰
  Drug purity (%): 99.24%
  pH value: 9.84
[3]; Meglumine 1‰
  Drug purity (%): 100%
  pH value: 9.65
[3]; Meglumine 3‰
  Drug purity (%): 99.80%
  pH value: 9.98
[3]; Meglumine 5‰
  Drug purity (%): 96.55%
  pH value: 10.22
[3]; Meglumine 8‰
  Drug purity (%): 99.45%
  pH value: 10.41
[3]; Meglumine 10‰
  Drug purity (%): 99.07%
  pH value: 10.42
[4]; HP-β-CD 5% (M/V)
  Drug concentration: 1850 µg/mL
  Drug purity (%): 99.21%
  pH values: 2.42
  Storing at 4° C. for one day: Trace
[4]; HP-β-CD 10% (M/V)
  Drug concentration: 2020 µg/mL
  Drug purity (%): 99.15%
  pH values: 2.54
  Storing at 4° C. for one day: Trace
[4]; HP-β-CD 15% (M/V)
  Drug concentration: 3160 µg/mL
  Drug purity (%): 99.08%
  pH values: 2.55
  Storing at 4° C. for one day: Trace
[4]; HP-β-CD 20% (M/V)
  Drug concentration: 4130 µg/mL
  Drug purity (%): 98.96%
  pH values: 2.67
  Storing at 4° C. for one day: Trace
[4]; HP-β-CD 25% (M/V)
  Drug concentration: 4520 µg/mL
  Drug purity (%): 98.24%
  pH values: 2.7
  Storing at 4° C. for one day: Trace
[4]; SBE-β-CD 5% (M/V)
  Drug concentration: 930 µg/mL
  Drug purity (%): 99.78%
  pH value: 3.77
  Storing at 4° C. for one day: Trace
[4]; SBE-β-CD 10% (M/V)
  Drug concentration: 1180 µg/mL
  Drug purity (%): 99.01%
  pH value: 3.71
  Storing at 4° C. for one day: Trace
[4]; SBE-β-CD 15% (M/V)
  Drug concentration: 1800 µg/mL
  Drug purity (%): 99.35%
  pH value: 3.67
  Storing at 4° C. for one day: Trace
[4]; SBE-β-CD 20% (M/V)
  Drug concentration: 2220 µg/mL
  Drug purity (%): 99.35%
  pH value: 3.64
  Storing at 4° C. for one day: Trace
[4]; SBE-β-CD 25% (M/V)
  Drug concentration: 2610 µg/mL
  Drug purity (%): 99.17%
  pH value: 3.57
  Storing at 4° C. for one day: Trace
